# Test results taken from patent US6362164B1, “Combination of a somatostatin analogue and a rapamycin” (Novartis AG, priority 1996, dated 2002).
# Legend:
# AR42J cells = test: In vitro AR42J cell growth assay (SRB staining, delta OD); assay type: cell-based, rat; set-up: Cell Growth (ΔOD): unit not given here; details: octreotide 1.2 nM, Compound B 12.0 nM, combination 1.2 + 12.0 nM; for Cell Growth (% of CONTROL) Observed: control = 100
# [1] = system: AR42J (AR4-2J) rat pancreatic tumor cell line; test: In vivo AR42J tumor growth in nude mice; details: after 4 weeks; s.c. AR42J tumors in female nude mice; Compound B or rapamycin 5 mg/kg p.o., octreotide slow release 30 mg/kg s.c. single inj.; control 4020 (3 week value)
# Experimental: Cultures are propagated in DMEM supplemented with 10% fetal calf serum (FCS) at 5% CO2. Cells are grown in the absence of antibiotics or antifungal agents. Female nude mice (nu/nu Balbc-A from Iffa Credo, Lyon, France) weighing 19-22 g, are kept in groups of 5 animals in macrolon cages (type III, 16×22×11 cm). The cages are placed in ventilated cabinets (Iffa Credo) that are maintained at 24±1° C. The animals have free access to drinking water and a pathogen-free rodent diet (Diet A, Kliba, Basel, Switzerland). To initiate tumors from cultured cells, AR42J cells are trypsinized and 10×10^6 tumor cells (in 0.2 ml) are injected subcutaneously (s.c.) into both flanks of nude mice. […] Control animals receive placebo. Animals are treated as indicated below for 3 weeks with single agents or the drug combination. The somatostatin analogue is given as a single injection of a slow release form at 30 mg/kg s.c. The size of the tumors is determined with a caliper. To calculate the tumor volume in ml, the equation “volume (ellipsoid)=length×depth×height×0.52” was used.
# After 4 weeks, the following tumor sizes were determined.
Compound,Cell Growth (% of CONTROL) Observed (AR42J cells) [%],Tumor Volume [1] [mm^3],"Cell Growth (ΔOD) (AR42J cells; DMEM+2.5% FCS, control 664 ± 9)"
"CO[C@H]1C[C@@H]2CC[C@@H](C)[C@@](O)(O2)C(=O)C(=O)N2CCCC[C@H]2C(=O)O[C@H]([C@H](C)C[C@@H]2CC[C@@H](OCCO)[C@H](OC)C2)CC(=O)[C@H](C)/C=C(\C)[C@@H](O)[C@@H](OC)C(=O)[C@H](C)C[C@H](C)/C=C/C=C/C=C/1C [Compound B, 40-O-(2-hydroxy)ethyl-rapamycin]",63.3,3685,–
Rapamycin,–,2748,–
octreotide,59.8,–,397 ± 16
